Source: PMC10764104, “Discovery of Molecular Glue Degraders via Isogenic Morphological Profiling” (ACS Chemical Biology, 2023)

Experiments:
[1] = target: T1, IKZF1 (Homo sapiens, UniProt Q13422); experiment: Western blot analysis of IKZF1 degradation in MV4.11 cells; type: cell-based; conditions: 16 h
T1 construct: endogenous in cells; host or cells: MV4.11

[2] = target: T2, GSPT2 G566N (Homo sapiens, UniProt Q8IYD1, G566N); experiment: Western blot (HA-tag) of G-loop mutant GSPT2 in RKO cells; type: cell-based; conditions: RKO cells stably overexpressing HA-GSPT2 G566N, 16 h; 10 μM FL2-14 or 10 nM CC-885
T2 construct: expressed in transfected cells; host or cells: RKO cells, lentiviral transduction, puromycin-selected
Protocol: Figure 3 FL2-14 is a selective GSPT2 molecular glue degrader. (A) Structure of FL2-14 comprising fluorosulfate scaffold FL2 (black) and tail group modification 14 (blue). (B) DMSO-normalized quantitative proteomics after 16 h of treatment with FL2-14 (10 μM) in RKO WT (n = 2). […] (C) Structural alignment of AlphaFold models of GSPT1 (AF-P15170-F1-model_v4 in gray) and GSPT2 (AF-Q8IYD1-F1-model_v4 in blue). (D) Validation of GSPT2 degradation by FL2-14. […] (E) Dose–response of FL2-14 in RKO and HEK293T cells. Cells were treated with the FL2-14 (0 to 10 μM) for 16 h. (F) Degradation of GSPT2^WT or GSPT2^G566N.
Prediction of the G‐loop degron sequence in GSPT2
We first compiled all CRBN degron sequences with known crystal structures (Table S 2). We subsequently discarded 6UML as its degron sequence included an alanine instead of the typical glycine observed in the seventh amino acid residue of other degron sequences, leaving six degron sequences. We then scanned the latest AlphaFold structure of GSPT215 for a potential stretch of 10 amino acids that would align best with each degron sequence. We yielded the same stretch of amino acid residues from position 560 to 569 ([…]) and RMSD values under 0.5 Å.
Table S 2: List of crystal structures used for the computational prediction of the G‐loop degron sequence […]
PDB code Resolution (Å) Chain Segment Sequence Reference
Analysis of G‐loop mutation […]

T1 sequence (Q96SW2 whole entry partner): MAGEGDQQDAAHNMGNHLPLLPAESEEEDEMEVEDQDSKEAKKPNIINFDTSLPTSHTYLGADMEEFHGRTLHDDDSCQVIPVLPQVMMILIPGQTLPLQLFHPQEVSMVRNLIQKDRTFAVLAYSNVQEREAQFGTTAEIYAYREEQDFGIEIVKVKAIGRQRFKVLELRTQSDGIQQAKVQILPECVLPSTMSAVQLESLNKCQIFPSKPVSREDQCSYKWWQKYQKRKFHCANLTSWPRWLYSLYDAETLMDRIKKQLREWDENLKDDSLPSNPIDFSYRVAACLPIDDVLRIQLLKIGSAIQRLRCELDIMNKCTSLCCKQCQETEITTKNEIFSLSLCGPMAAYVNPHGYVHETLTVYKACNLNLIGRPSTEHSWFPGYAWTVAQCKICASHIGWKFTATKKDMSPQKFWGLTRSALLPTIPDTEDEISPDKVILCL
T1 sequence (Q16531 2-1140 partner limits assumed): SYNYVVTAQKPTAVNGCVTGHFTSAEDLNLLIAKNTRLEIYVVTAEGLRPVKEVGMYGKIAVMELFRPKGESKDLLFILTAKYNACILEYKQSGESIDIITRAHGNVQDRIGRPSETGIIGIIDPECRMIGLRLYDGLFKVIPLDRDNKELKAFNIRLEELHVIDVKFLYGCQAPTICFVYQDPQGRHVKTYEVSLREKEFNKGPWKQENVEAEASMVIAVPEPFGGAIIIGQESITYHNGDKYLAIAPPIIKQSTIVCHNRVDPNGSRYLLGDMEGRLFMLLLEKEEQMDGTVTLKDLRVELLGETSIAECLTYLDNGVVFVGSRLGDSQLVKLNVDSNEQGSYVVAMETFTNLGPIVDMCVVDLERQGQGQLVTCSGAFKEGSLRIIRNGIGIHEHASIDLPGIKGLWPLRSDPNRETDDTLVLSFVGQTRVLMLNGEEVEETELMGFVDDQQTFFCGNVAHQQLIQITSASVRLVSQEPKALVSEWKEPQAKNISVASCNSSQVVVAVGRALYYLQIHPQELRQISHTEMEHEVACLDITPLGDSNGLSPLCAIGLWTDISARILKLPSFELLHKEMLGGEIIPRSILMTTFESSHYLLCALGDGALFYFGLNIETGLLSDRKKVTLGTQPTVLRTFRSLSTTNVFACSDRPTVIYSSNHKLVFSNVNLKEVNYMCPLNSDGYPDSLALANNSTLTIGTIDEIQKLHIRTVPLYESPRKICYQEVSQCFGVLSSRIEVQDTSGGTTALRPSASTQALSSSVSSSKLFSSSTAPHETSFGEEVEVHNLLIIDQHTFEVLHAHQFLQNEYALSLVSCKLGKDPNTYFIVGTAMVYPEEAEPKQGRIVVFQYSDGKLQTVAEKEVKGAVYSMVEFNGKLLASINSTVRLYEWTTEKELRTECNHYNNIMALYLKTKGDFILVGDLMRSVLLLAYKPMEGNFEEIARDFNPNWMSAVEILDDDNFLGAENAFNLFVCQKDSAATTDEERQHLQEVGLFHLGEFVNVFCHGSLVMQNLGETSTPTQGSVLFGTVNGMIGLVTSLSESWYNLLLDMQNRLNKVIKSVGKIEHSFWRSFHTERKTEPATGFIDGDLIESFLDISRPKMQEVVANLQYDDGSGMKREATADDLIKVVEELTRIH
T1 sequence (Q13422 whole entry): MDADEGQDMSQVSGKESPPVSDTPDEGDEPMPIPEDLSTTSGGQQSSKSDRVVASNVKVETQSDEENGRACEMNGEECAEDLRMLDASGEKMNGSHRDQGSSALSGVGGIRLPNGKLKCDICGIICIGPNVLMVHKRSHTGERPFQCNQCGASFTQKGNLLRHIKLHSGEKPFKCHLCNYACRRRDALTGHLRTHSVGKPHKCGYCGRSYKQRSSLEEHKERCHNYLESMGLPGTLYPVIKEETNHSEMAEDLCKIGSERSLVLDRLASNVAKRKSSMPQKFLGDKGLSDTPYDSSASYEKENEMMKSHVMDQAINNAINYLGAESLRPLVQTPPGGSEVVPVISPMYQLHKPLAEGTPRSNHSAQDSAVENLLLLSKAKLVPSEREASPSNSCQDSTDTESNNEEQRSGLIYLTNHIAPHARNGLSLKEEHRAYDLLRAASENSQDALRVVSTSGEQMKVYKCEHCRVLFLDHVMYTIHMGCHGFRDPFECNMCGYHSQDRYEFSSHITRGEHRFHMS
T2 sequence (Q8IYD1 whole entry G566N): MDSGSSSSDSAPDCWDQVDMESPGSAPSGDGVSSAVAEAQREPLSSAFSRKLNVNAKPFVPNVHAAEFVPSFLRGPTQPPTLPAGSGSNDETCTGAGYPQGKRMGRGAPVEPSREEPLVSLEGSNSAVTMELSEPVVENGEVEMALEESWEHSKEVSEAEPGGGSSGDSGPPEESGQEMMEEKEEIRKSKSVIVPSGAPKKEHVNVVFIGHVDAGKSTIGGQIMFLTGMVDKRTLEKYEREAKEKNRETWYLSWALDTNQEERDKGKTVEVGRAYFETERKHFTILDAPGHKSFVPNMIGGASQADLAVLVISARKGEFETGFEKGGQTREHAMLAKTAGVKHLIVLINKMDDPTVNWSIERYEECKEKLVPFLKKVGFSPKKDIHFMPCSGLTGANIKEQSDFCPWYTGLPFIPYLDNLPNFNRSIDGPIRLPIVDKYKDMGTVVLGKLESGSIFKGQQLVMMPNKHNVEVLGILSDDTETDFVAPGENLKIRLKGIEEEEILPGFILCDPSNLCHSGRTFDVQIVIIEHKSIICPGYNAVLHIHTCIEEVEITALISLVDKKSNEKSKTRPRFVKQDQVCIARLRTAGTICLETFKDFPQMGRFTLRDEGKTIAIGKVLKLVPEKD

For `CN(Cc1ncc(C2CC2)o1)S(=O)(=O)Oc1ccc(Nc2ccc3c(c2)C(=O)N(C2CCC(=O)NC2=O)C3=O)cc1` (centres unmarked) [FL2-14], the IKZF1 degradation [1] was “did not induce degradation of IKZF1” and the “degradation of HA-tagged GSPT2 G566N (glycine of G-loop replaced by asparagine)” value [2] was “rescued degradation of GSPT2”.
